Reference: paper PMC5642495, “Characterization of a novel androgen receptor (AR) coregulator RIPK1 and related chemicals that suppress AR-mediated prostate cancer growth via peptide and chemical screening” (Oncotarget, 2017)

Assays:
AR = test system: AR; design: method as in PMID 24742982; settings: cited from earlier work
AR transactivation = assay: AR transcriptional reporter assay in PC-3 cells; format: cell-based, human; settings: 10 nM DHT, 1 µM
Method: Figure 1 Associations between RIPK1 and AR (A) Co-IP of Flag-RIPK1 with Flag-AR in the 293T cell line. Extracts of 293T cells overexpressing 3xFlag-RIPK1 and 3xFlag-AR were treated with […]. IP was performed using anti-AR (C19) or anti-RIPK1 antibody or normal rabbit serum (negative control), followed by immunoblotting (IB) with antibodies against AR or RIPK1. (B) RIPK1 interacts with full-length AR and the N- and C-terminal regions of AR in GST pull-down assays. Mutation of the FxxFY motif to AxxAA in RIPK1 reduced interactions with AR. […] (C) Transfection of PC-3 prostate cancer cells with AR and RIPK1. PC-3 cells in 24-well plates were co-transfected with 300 ng MMTV-LUC reporter plasmid and 0.5 ng SV40-Renilla luciferase plasmid, together with 100 ng pCMV-Flag-AR and 100, 300 or 500 ng p3xFLAG- RIPK1. The total plasmid DNA content was made up to 1 µg with pCMV. After 16 h, ethanol or 10 nM DHT was added and cells incubated for an additional 16 h. DHT was used as the AR ligand while ARA70N served as the positive control. Relative LUC activity was determined using the dual luciferase system. (D) RIPK1 functional domain mapping in relation to AR transactivation. PC-3 cells were transfected with pCMV-Flag-AR and RIPK1 expression plasmid, P3xFlag-RIPK1 full-length, P3xFlag-RIPK1-(240-671) or P3xflag-RIPK1-(1-558) plasmid, and cultured overnight. Ethanol or 10 nM DHT was added and cells incubated for an additional 16 h. Relative LUC activity was determined using the dual luciferase system. (E) RIPK1 is expressed in benign prostatic hyperplasia tissue, displaying strong positivity (3+, > 90%) in the gland area but weak (1+, 50%) staining in the background. (F) Human prostate cancer tissues were immunostained for RIPK1. “T” indicates the tumor area (right side) and “Non-T” the non-tumor area (left side). RIPK1 expression was weak (1+, 80%) in the cancer area but remained strong (3+, 70%) in the peri-cancer area. The figures are representative of three benign prostatic gland hyperplasia and cancer tissues.
The PC-3 prostate cancer cell line was used for experiments. […]

[1] = target: W741L-AR (bicalutamide-associated mutant androgen receptor, mammalian two-hybrid) (human); assay: two-hybrid; mammalian two-hybrid (MM2H) in PC-3 cells; Gal-4 peptide fusion with AR; CDX (bicalutamide) 10 µM; values relative to Gal-4 alone
Chain of W741L-AR (bicalutamide-associated mutant androgen receptor, mammalian two-hybrid) (human) (P10275 whole entry, stated change not applied, the tested form may be a part): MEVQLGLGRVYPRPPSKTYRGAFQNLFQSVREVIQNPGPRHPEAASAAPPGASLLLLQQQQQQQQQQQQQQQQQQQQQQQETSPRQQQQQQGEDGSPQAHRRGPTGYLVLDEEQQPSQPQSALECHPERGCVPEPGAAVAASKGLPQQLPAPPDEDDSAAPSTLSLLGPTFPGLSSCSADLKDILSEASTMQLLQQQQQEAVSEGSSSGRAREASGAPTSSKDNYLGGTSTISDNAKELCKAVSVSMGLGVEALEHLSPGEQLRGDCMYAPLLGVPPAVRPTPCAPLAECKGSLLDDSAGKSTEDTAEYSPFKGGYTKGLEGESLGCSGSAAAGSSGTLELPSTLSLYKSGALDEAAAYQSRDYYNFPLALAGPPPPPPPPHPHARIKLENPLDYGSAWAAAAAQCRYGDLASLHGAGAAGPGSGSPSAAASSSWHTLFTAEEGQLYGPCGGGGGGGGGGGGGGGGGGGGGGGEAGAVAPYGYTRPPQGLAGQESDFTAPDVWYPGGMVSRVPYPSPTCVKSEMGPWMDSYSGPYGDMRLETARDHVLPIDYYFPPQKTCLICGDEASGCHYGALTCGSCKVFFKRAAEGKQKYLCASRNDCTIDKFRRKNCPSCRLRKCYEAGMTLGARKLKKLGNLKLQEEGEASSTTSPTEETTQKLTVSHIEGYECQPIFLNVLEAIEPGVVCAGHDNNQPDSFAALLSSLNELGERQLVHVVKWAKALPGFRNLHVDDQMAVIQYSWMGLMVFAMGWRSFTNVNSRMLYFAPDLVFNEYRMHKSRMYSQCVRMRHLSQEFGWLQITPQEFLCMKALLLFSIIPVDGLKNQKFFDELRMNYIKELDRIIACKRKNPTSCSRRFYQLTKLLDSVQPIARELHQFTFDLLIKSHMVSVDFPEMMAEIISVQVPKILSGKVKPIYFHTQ

Row | Molecule | relative reporter activity in the mammalian two-hybrid assay (Gal-4 alone = 1) [1] | further results
1 | Nc1cc(N2CCCCC2)nc(N)[n+]1[O-] [Minoxidil] | – | suppression of AR related function (AR): suppress AR related function
2 | CNC(=O)c1ccc(N2C(=S)N(c3ccc(C#N)c(C(F)(F)F)c3)C(=O)C2(C)C)cc1F [enzalutamide, reference compound] | – | suppression of AR transactivation (AR transactivation): suppressed AR transactivation
3 | NTNAFSRLFYPS [#3-18 peptide (No. 12, positive control; GAL4-DBD-3-18)] | 128 | –
4 | GIEEKFRPFYLSQLE [RIP-p, short FxxFY-containing peptide of RIPK1 (No. 13)] | 554 | –
